Assay results published in patent publication US20030082101A1, “Accelerators for increasing the rate of formation of free radicals and reactive oxygen species” (Cavalier Discovery, priority 2001, published 2003).

What was measured:
[1] = system: deoxyribose; assay: TBARS assay, additives in solutions containing iron or iron plus a chelant, ultrasound (Example 5); format: biochemical; conditions: 0.08-0.1 mM ferric iron; EDTA 0.15 mM; 30 W 2 MHz 10 min
Method: The following example uses the thiobarbituric acid-reactive substances (TBARS) assay to identify compounds that enhance radical production during ultrasound exposure of solutions containing iron or iron plus a chelant. All solutions were prepared in pH 7.5 phosphate buffer containing approximately 2 mM deoxyribose, 0.01% hydrogen peroxide, 0.08-0.1 mM ferric iron, and the additives indicated in the table below. Solutions were sonicated at 30 W, 2 MHz, 32-34 degrees Celsius for ten minutes using a PZT-8 1.8 cm diameter custom transducer. The sonicated solution was placed on an orbit shaker rotating at 25 RPM to ensure even sonication of the solution while the transducer was held stationary. Control solutions were placed in a controlled temperature bath at 32-34 degrees Celsius without sonication. […] The test tube was sealed and heated to 90 degrees Celsius for 30 minutes and allowed to cool to room temperature for 20 minutes. The absorbance at 532 nm was measured. The enhanced radical production during ultrasound exposure was determined by comparing the amount of deoxyribose degradation that occurs in the sonicated solution versus the control solution using the following equation: [formula]

[2] = system: deoxyribose; assay: TBARS assay, chelants during ultrasound exposure, ferrous iron (Example 1); format: biochemical; conditions: 0.025 mM ferrous iron, 0.03-0.04 mM chelant, 0.01% hydrogen peroxide, pH 7.5, 30 W 2 MHz 10 min
Method: (§1) The following example uses the thiobarbituric acid-reactive substances (TBARS) assay to identify chelants that enhance radical production during ultrasound exposure. All solutions were prepared in pH 7.5 phosphate buffer containing approximately 2 mM deoxyribose, 0.01% hydrogen peroxide, 0.025 mM ferrous iron, and 0.03-0.04 mM chelant. Solutions were sonicated at 30 W, 2 MHz, 32-34 degrees Celsius for ten minutes using a PZT-8 1.8 cm diameter custom transducer. The sonicated solution was placed on an orbit shaker rotating at 25 RPM to ensure even sonication of the solution while the transducer was held stationary. Control solutions were placed in a controlled temperature bath at 32-34 degrees Celsius without sonication. After 10 minutes of treatment, 1 mL test solution was placed in a test tube followed by 2 mL of 1% 2-thiobarbituric acid and 2 mL of 2.8% trichloroacetic acid. The test tube was sealed and heated to 90 degrees Celsius for 30 minutes and allowed to cool to room temperature for 20 minutes. The absorbance at 532 nm was measured. The enhanced radical production during ultrasound exposure is determined by comparing the amount of deoxyribose degradation that occurs in the sonicated solution versus the control solution using the following equation: [formula]

[3] = system: deoxyribose; assay: TBARS assay, chelants during ultrasound exposure, ferric iron (Example 2); format: biochemical; conditions: 0.02-0.03 mM ferric iron, 0.04-0.05 mM chelant, 0.01% hydrogen peroxide, pH 7.5, 30 W 2 MHz 10 min
Method: as §1, with “0.02-0.03” for “0.025”, “ferric” for “ferrous”, “0.04-0.05” for “0.03-0.04”, “was” for “is”

[4] = on chelation of iron; cited from earlier work

O=C(O)CN(CCN(CC(=O)O)CC(=O)O)CC(=O)O [Ethylenediaminetetraacetic acid]
% Ultrasound Mediated Activity vs Control [1]: 277% | % Ultrasound Mediated Activity vs Control [2]: 64% | % Ultrasound Mediated Activity vs Control [3]: 575% | lowering of the redox potential of Fe(III)/Fe(II) [4]: 0.65 V
